Results from PubChem BioAssay (NCI).
Values joined by “and” are separate entries in the source; they are usually repeats but may differ in a detail not shown here. Equal entries are not always repeated.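 Step 1: Grow cells in 96-well plates. Step 2: Expose to compound for 48 hours at 5 concentrations. Step 3: Interpolate endpoints linearly; if unreached, use highest concentration. GI50 is the concentration that inhibits growth by half. The concentration for full growth arrest is given as TGI.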

How the values were obtained:
Assay in all cases: DTP human tumour cell line panel, 48 h
MALME-3M melanoma = system: MALME-3M melanoma
SNB-75 CNS = system: SNB-75 CNS
A498 renal = system: A498 renal
786-0 renal = system: 786-0 renal
HCT-15 colon = system: HCT-15 colon
LOX IMVI melanoma = system: LOX IMVI melanoma
HT29 colon = system: HT29 colon
TK-10 renal = system: TK-10 renal
HL-60(TB) leukemia = system: HL-60(TB) leukemia
HCT-116 colon = system: HCT-116 colon

Row | SMILES | GI50 (MALME-3M melanoma) | TGI (MALME-3M melanoma) | TGI (SNB-75 CNS) | GI50 (A498 renal) | TGI (A498 renal) | GI50 (786-0 renal) | TGI (786-0 renal) | GI50 (HCT-15 colon) | TGI (HCT-15 colon) | GI50 (LOX IMVI melanoma) | TGI (LOX IMVI melanoma) | GI50 (HT29 colon) | TGI (HT29 colon) | GI50 (TK-10 renal) | TGI (TK-10 renal) | GI50 (HL-60(TB) leukemia) | TGI (HL-60(TB) leukemia) | GI50 (HCT-116 colon) | TGI (HCT-116 colon) | GI50 (SNB-75 CNS)
1 | O=c1[nH]c2ccccc2n1C1CCN(CCCC(c2ccc(F)cc2)c2ccc(F)cc2)CC1 | 1.71 µM | 3.42 µM and 5.09 µM | 25.6 µM | 1.12 µM and 8.77 µM | 2.36 µM and 22.7 µM | 1.75 µM and 2.79 µM | 3.38 µM and 7.58 µM | 1.77 µM | 3.95 µM and 19.7 µM | 1.61 µM and 2.55 µM | 3.02 µM and 6.62 µM | 1.12 µM | 2.52 µM and 7.2 µM | 1.54 µM and 6.93 µM | 2.95 µM and 16.1 µM | 1.82 µM | 4.4 µM and 11.9 µM | 1.44 µM and 5.67 µM | 3.14 µM and 17.8 µM | –
2 | CC1=NNC(=S)NCCCN2CCN(CCCNC(=S)NN=C(C)C=NNC(=S)NCCCN3CCN(CCCNC(=S)NN=C1)CC3)CC2 | – | > 100 µM | > 100 µM | – | > 100 µM | – | > 100 µM | – | > 100 µM | – | > 100 µM | – | > 100 µM | – | > 100 µM | – | > 100 µM | – | > 100 µM | –
3 | O=C1/C(=C/c2ccccc2O)N=C(c2ccccc2)N1c1cc(C(F)(F)F)ccc1Cl | 46.7 µM | > 100 µM | 37.7 µM | 59.4 µM | > 100 µM | 18.3 µM | 44.1 µM | 64.7 µM | > 100 µM | 40.8 µM | > 100 µM | > 100 µM | > 100 µM | 18.9 µM | 43.7 µM | > 100 µM | > 100 µM | 25 µM | > 100 µM | 18.1 µM
4 | C#CCNC(=O)NC(CCCCNC(=O)OCc1ccccc1)C(=O)OCc1ccccc1 (configuration not stated) | – | 61 µM | 37.3 µM | – | 53.6 µM | – | > 100 µM | – | > 100 µM | – | > 88.4 µM | – | > 56.2 µM | – | > 93 µM | – | 46.7 µM | – | > 100 µM | –
5 | COc1ccc(COc2cc3oc(=O)c4cc(C(C)O)ccc4c3cc2OC)cc1 (configuration not stated) | 10.2 µM | 40.2 µM | 11.1 µM | 19.2 µM | 82.2 µM | 13.1 µM | 56.7 µM | 12 µM | > 100 µM | 18.7 µM | > 100 µM | – | > 100 µM | 17.4 µM | 62.6 µM | – | > 100 µM | 13.3 µM | > 100 µM | 2.08 µM
6 | C=CCN(CC=C)C(=O)[C@H](CC)[C@@H]1CC[C@@H](C)[C@@H]([C@H](C)[C@@H](O)[C@@H](C)C(=O)[C@H](CC)C2O[C@]3(C=C[C@@H](O)[C@]4(CC[C@@](C)([C@H]5CC[C@](O)(CC)[C@H](C)O5)O4)O3)[C@H](C)C[C@@H]2C)O1 (some centres not stated) | 1.76 µM | 3.6 µM | 10.5 µM | 2.07 µM | 5.32 µM | 2.19 µM | 5.48 µM | 2.05 µM | 4.81 µM | 1.52 µM | 3.22 µM | 3.12 µM | 16.1 µM | 3.65 µM | > 100 µM | 2.09 µM | 4.76 µM | 2.81 µM | 10.1 µM | 1.84 µM
7 | O=C(CO)C1CC2C=CC1C2 (configuration not stated) | – | > 100 µM | > 100 µM | – | > 100 µM | – | > 100 µM | – | > 100 µM | – | > 100 µM | – | > 100 µM | – | > 100 µM | – | > 100 µM | – | > 100 µM | –
8 | O=S(=O)(NCCCNc1cc(-c2cn(-c3ccccc3)nc2-c2cccc(O)c2)ccn1)c1ccc(F)cc1 | 2.56 µM | 8.91 µM | 16 µM | 2.49 µM | 9.81 µM | 2.35 µM | 6.23 µM | 2.45 µM | 7.9 µM | 3 µM | 10.7 µM | 2.26 µM | 6.5 µM | 7.41 µM | 31.5 µM | 2.2 µM | 5.85 µM | 2.91 µM | 11.7 µM | 3.47 µM
9 | COc1c(CC=C(C)C)c(O)c(C(CC(C)C)c2c(O)c(CC=C(C)C)c(O)c(C(C)=O)c2O)c(O)c1C(C)=O (configuration not stated) | – | 6.45 µM | 8.32 µM | – | 1.24 µM | – | 11.9 µM | – | 2.62 µM | – | 3.59 µM | – | 8.63 µM | – | 14.6 µM | – | 3.28 µM | – | 1.6 µM | –
10 | COc1ccc(S(=O)(=O)N2CCNCC2)cc1OC | > 100 µM | > 100 µM | > 100 µM | > 100 µM | > 100 µM | > 100 µM | > 100 µM | > 100 µM | > 100 µM | > 100 µM | > 100 µM | > 100 µM | > 100 µM | > 100 µM | > 100 µM | > 100 µM | > 100 µM | > 100 µM | > 100 µM | > 100 µM
11 | Cn1c(C(=O)c2cccc3ccccc23)nc2ccccc21 | > 100 µM | > 100 µM | > 100 µM | 8.59 µM | > 100 µM | > 100 µM | > 100 µM | > 100 µM | > 100 µM | > 100 µM | > 100 µM | > 100 µM | > 100 µM | > 100 µM | > 100 µM | > 100 µM | > 100 µM | > 100 µM | > 100 µM | 15.3 µM
12 | CCn1ccnc1C(=O)/C=C/c1ccc(CC(=O)Nc2ccc(F)cc2)cc1 | > 16.7 µM | > 16.7 µM | > 16.7 µM | 3.73 µM | 15.5 µM | 4.36 µM | > 16.7 µM | 1.93 µM | 8.96 µM | 0.561 µM | 2.83 µM | 5.64 µM | > 16.7 µM | 6.01 µM | > 16.7 µM | 3.18 µM | 10.9 µM | 1.84 µM | 4.4 µM | 2.81 µM
13 | COC(=O)c1cc([N+](=O)[O-])cc([N+](=O)[O-])c1Cl | 1.95 µM | 4.1 µM | 5.07 µM | 17 µM | 30.7 µM | 1.79 µM | 3.22 µM | 2.19 µM | 5.44 µM | 1.75 µM | 3.36 µM | 1.88 µM | 3.49 µM | 2.48 µM | 6.48 µM | 3.98 µM | 27.5 µM | 1.06 µM | 2.63 µM | 1.93 µM
